Converted amounts (≈) assume the structure as drawn.
Experiments:
[1] = biological target: Cyclin-dependent kinase 2 (Homo sapiens, UniProt P24941); test: Inhibition of CDK2/Cyclin E
MCF7 = test: cells; conditions: Homo sapiens, MCF7, 48 h
Description: Antiproliferative activity against human MCF7 cells after 48 hrs

[2] = AUC in rat at 2 mg/kg, po; format: ADME, organism-based; design: dose 2 mg/kg, route oral; conditions: plasma
[3] = Aqueous solubility at pH 7.4; conditions: buffer
[4] = Lipophilicity Log D at pH 7.4; conditions: buffer
[5] = Volume of distribution at steady state in dog; format: ADME, organism-based, Canis lupus familiaris; conditions: in vivo, read-out: Vdss
[6] = Plasma clearance in dog; format: ADME, organism-based, Canis lupus familiaris
[7] = biological target: Voltage-gated inwardly rectifying potassium channel KCNH2 (Homo sapiens, UniProt Q12809)
[8] = Oral bioavailability in rat; format: ADME, organism-based; conditions: in vivo
[9] = Plasma clearance in rat; format: ADME, organism-based
[10] = Volume of distribution at steady state in rat; format: ADME, organism-based; conditions: in vivo, read-out: Vdss
[11] = Oral bioavailability in dog; format: ADME, organism-based, Canis lupus familiaris; conditions: in vivo
[12] = Protein binding in rat plasma assessed as unbound fraction; format: ADME, cell-free
SW-620 [13] = test: animal or person; conditions: Mus musculus, SW-620, po, 672 h, read-out: INH
Description: Antitumor activity against human SW620 cells xenografted nude mouse assessed as tumor growth inhibition at 12.5 mg/kg, po once daily for 28 days

SW-620 [14] = test: Antitumor activity against human SW620 cells xenografted nude mouse assessed as tumor growth inhibition at 7.5 mg/kg, po once daily for 28 days; conditions: SW-620, po, 672 h, read-out: INH

Voltage-gated inwardly rectifying potassium channel KCNH2, sequence (Q12809 whole entry): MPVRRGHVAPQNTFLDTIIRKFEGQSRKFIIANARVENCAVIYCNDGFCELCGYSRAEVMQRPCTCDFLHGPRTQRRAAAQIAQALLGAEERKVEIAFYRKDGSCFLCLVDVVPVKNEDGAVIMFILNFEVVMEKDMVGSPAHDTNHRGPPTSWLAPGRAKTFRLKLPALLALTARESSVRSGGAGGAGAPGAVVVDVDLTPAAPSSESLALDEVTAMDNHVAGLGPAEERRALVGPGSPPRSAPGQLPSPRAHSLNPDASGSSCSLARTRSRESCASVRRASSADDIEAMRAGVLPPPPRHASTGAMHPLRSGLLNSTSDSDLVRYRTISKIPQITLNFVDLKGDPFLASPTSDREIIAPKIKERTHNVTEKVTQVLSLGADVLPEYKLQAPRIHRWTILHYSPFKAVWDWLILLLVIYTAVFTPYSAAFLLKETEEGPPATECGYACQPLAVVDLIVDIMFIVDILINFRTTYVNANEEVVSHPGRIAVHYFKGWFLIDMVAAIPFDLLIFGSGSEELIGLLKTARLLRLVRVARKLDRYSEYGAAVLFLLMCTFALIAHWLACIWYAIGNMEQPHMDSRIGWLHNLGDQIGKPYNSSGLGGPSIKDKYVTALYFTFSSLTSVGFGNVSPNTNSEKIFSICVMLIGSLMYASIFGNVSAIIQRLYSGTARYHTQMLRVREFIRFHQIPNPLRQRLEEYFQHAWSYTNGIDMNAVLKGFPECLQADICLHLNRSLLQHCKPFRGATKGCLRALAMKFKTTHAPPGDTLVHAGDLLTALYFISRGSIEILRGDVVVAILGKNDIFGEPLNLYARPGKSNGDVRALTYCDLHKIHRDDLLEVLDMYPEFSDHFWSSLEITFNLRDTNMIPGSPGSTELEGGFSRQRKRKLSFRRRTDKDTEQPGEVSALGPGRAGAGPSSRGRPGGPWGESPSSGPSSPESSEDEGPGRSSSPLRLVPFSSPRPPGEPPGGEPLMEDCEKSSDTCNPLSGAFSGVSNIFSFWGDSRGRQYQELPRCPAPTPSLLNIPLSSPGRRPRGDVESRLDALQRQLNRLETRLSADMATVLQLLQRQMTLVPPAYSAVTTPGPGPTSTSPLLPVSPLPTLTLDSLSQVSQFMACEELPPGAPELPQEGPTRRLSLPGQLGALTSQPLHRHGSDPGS

COc1ccc(Nc2nccc(-c3cnc(C)n3C(C)C)n2)cc1
IC50 [1]: 8 nM
IC50 (MCF7): 72 nM

Cc1ncc(-c2ccnc(Nc3ccc(N4CCOCC4)cc3)n2)n1C(C)C
AUC [2]: 0.16 µM·h
IC50 [1]: 9 nM
IC50 (MCF7): 290 nM
solubility [3]: 56 µM (≈ 21.2 µg/mL)
logD [4]: 2.9

COCCS(=O)(=O)N1CCN(c2ccc(Nc3nccc(-c4cnc(C)n4C(C)C)n3)cc2)CC1
IC50 [1]: < 3 nM
IC50 (MCF7): 93 nM

Cc1ncc(-c2nc(Nc3ccc(N4CCOCC4)cc3)ncc2F)n1C(C)C
AUC [2]: 0.19 µM·h
Vd [5]: 2.9 L/kg
IC50 [1]: 8 nM
clearance [6]: 140 mL/min/kg
IC50 (MCF7): 110 nM
solubility [3]: 120 µM (≈ 47.6 µg/mL)
IC50 [7]: 11000 nM
logD [4]: 3
bioavailability [8]: 34%
clearance [9]: 26 mL/min/kg
Vd [10]: 1.3 L/kg
bioavailability [11]: 3%

CC(=O)N[C@@H]1CCN(c2ccc(Nc3ncc(F)c(-c4cnc(C)n4C(C)C)n3)cc2)C1
IC50 [1]: > 0.3 nM
IC50 (MCF7): 140 nM

Cc1ncc(-c2nc(Nc3ccc(N4CCC[C@H]4C(=O)N(C)C)cc3)ncc2F)n1C(C)C
IC50 [1]: 46 nM

Cc1ncc(-c2ccnc(Nc3ccc(N(C)C)cc3)n2)n1C(C)C
IC50 [1]: 24 nM
IC50 (MCF7): 68 nM

CC(=O)N1CCN(c2ccc(Nc3nccc(-c4cnc(C)n4C(C)C)n3)cc2)CC1
IC50 [1]: < 3 nM
IC50 (MCF7): 145 nM

Cc1ncc(-c2ccnc(Nc3ccc(N4CCN(C(=O)CN(C)C)CC4)cc3)n2)n1C(C)C
fraction unbound [12]: 0.4
IC50 [1]: 16 nM
IC50 (MCF7): < 27 nM
solubility [3]: > 3400 µM
IC50 [7]: > 32000 nM
logD [4]: 3.3

CC(=O)NC1CN(c2ccc(Nc3ncc(F)c(-c4cnc(C)n4C(C)C)n3)cc2)C1
fraction unbound [12]: 0.05
IC50 [1]: 0.5 nM
solubility [3]: 120 µM (≈ 50.8 µg/mL)
logD [4]: 2.8

Cc1ncc(-c2ccnc(Nc3ccc(N4CCN(S(=O)(=O)CCN(C)C)CC4)cc3)n2)n1C(C)C
IC50 [1]: 3 nM
IC50 (MCF7): < 39 nM
IC50 [7]: 18000 nM
logD [4]: 2.5

COCCNS(=O)(=O)c1ccc(Nc2nccc(-c3cnc(C)n3C(C)C)n2)cc1
IC50 (MCF7): 45 nM

Cc1ncc(-c2ccnc(Nc3ccc(Cl)cc3)n2)n1C(C)C
IC50 [1]: < 3 nM
IC50 (MCF7): 72 nM

Cc1ncc(-c2nc(Nc3ccc(N4CCN(C(=O)CO)CC4)cc3)ncc2F)n1C(C)C
AUC [2]: 0.17 µM·h
Vd [5]: 3.5 L/kg
IC50 [1]: 6 nM
inhibition in vivo at 12.5 mg/kg (SW-620 [13]): 89%
clearance [6]: 24 mL/min/kg
IC50 (MCF7): 75 nM
solubility [3]: 160 µM (≈ 72.6 µg/mL)
logD [4]: 2.2
bioavailability [8]: 67%
clearance [9]: 16 mL/min/kg
Vd [10]: 1 L/kg
bioavailability [11]: 31%

Cc1ncc(-c2ccnc(Nc3ccc(N4CCN(C(=O)CO)CC4)cc3)n2)n1C(C)C
fraction unbound [12]: 0.22
AUC [2]: 0.4 µM·h
Vd [5]: 3.4 L/kg
clearance [6]: 19 mL/min/kg
inhibition in vivo at 7.5 mg/kg (SW-620 [14]): 80%
bioavailability [8]: 59%
clearance [9]: 15 mL/min/kg
Vd [10]: 2.5 L/kg
bioavailability [11]: 79%

Cc1ncc(-c2ccnc(Nc3ccc(N4CCN(C(=O)[C@H](C)O)CC4)cc3)n2)n1C(C)C
AUC [2]: 0.16 µM·h
IC50 [1]: 17 nM
IC50 (MCF7): 220 nM
IC50 [7]: > 24000 nM

Cc1ncc(-c2ccnc(Nc3ccc(C#N)cc3)n2)n1C(C)C
IC50 [1]: < 3 nM
IC50 (MCF7): 70 nM

Cc1ncc(-c2ccnc(Nc3ccc(N4CCN(S(C)(=O)=O)CC4)cc3)n2)n1C(C)C
fraction unbound [12]: 0.08
AUC [2]: 0.08 µM·h
IC50 [1]: < 3 nM
IC50 (MCF7): 72 nM
solubility [3]: 9 µM (≈ 4.1 µg/mL)
IC50 [7]: 5500 nM
logD [4]: 2.6

CCN(CC)CC(=O)N1CCN(c2ccc(Nc3nccc(-c4cnc(C)n4C(C)C)n3)cc2)CC1
IC50 (MCF7): < 22 nM
solubility [3]: > 3700 µM

Cc1ncc(-c2ccnc(Nc3ccc(F)cc3)n2)n1C(C)C
IC50 [1]: 3 nM
IC50 (MCF7): 100 nM
